Measured values as given in US9458102B2 (priority 2011, dated 2016).
Like-named read-outs stand apart in the source and are kept apart here.

Tests used:
[1] = molecular target: heteromeric rod CNG channels consisting of CNGA1 and CNGB1 subunits (Bos taurus, UniProt Q00194+Q28181); assay: biochemical; assay type: cell-based; settings: 2 mM cGMP; for voltage dependence of block: +50 vs −50 mV
Method: Currents were elicited by a voltage step protocol from 0 to −50 to +50 mV (See FIG. 1) in the presence of 2 mM cGMP or 2 mM cGMP and compound (5 μM). Time scale is shown in the lower left-hand corner of the panel and FIG. 1, and the zero current level is indicated by the dotted line.
The solid line indicates the fit of the equation for block at a single binding site.
Time scale is shown in the lower left-hand corner of the panel and FIG. 1, and the zero current level is indicated by the dotted line. […] Solid line indicates the fit of the equation for block at a single binding site.
The effectiveness of retinal rod CNG channel current block by the disclosed compounds was tested in Xenopus oocyte preparations. Excised, inside-out patches pulled from oocytes expressed heteromeric rod CNG channels consisting of CNGA1 and CNGB1 subunits. […] CNG channel currents were elicited by a voltage step protocol to −50 and +50 mV (FIG. 1). The apparent KD value at each membrane potential was estimated first by determining I+B and I−B at steady state, where I+B is the current in the presence of blocker and I−B is current in the absence of blocker, for different blocker concentrations ([B]).
Ovaries were surgically removed from adult Xenopus laevis females (Xenopus Express; Brooksville, Fla.) anesthetized with ice-cold 0.1% tricaine and 0.1% NaHCO3 solution. Oocytes were chemically released from ovarian follicles in Ca^2+-free Barth's solution (88 mM NaCl, 1 mM KCl, 2.4 mM NaHCO3, 0.82 mM MgSO4, 7.5 mM Tris, 2.5 mM sodium pyruvate, 100 U/mL penicillin, and 100 μg/mL streptomycin, pH 7.4) containing 0.1 U/mL Liberase Blendzymes (Roche, Indianapolis, Ind.). Stages IV and V oocytes were visually sorted and stored in ND-96 (96 mM NaCl, 2 mM KCl, 1.8 mM CaCl2, 1 mM MgCl2, 5 mM HEPES, 2.5 mM sodium pyruvate, 100 U/mL penicillin, and 100 μg/mL streptomycin, pH 7.4) at 16° C. Oocytes were co-injected the following day with 33 ng of CNGA1 and 67 ng of CNGB1 cRNA […] synthesized from linearized pGEM-HE expression vectors containing the channel subunit cDNA sequence (Strassmaier T & Karpen J, J Med Chem 50, 4186-4194, (2007), incorporated by reference herein) using T7 mMESSAGE mMACHINE® (Ambion, Austin, Tex.). Injected oocytes were incubated at 18° C. the first day and 16° C. for the remaining days.
Recordings from inside-out excised patches were made 3-7 days after oocyte injection on an Axopatch 1D® amplifier (Axon Instruments, Foster City, Calif.). Briefly, oocyte vitelline membranes were removed in solution containing 200 mM K aspartate, 20 mM KCl, 1 mM MgCl2, 10 mM EGTA, 10 mM HEPES, pH 7.4. Oocytes were placed in a recording chamber in a solution containing 130 mM NaCl, 2 mM HEPES, 0.02 mM EDTA, 1 mM EGTA, pH 7.6, and borosilicate glass electrodes (1-3 MΩ) were filled with identical solution. Macroscopic currents were filtered at 1 kHz and sampled at 2 kHz using pCLAMP 8.0® software (Axon Instruments). Channels were either fully activated with 2 mM or partially activated with 50 and 100 μM cGMP. […] Glass syringes and Teflon tubing were used to minimize the binding of compounds to surfaces; concentrations passing through the perfusion system were verified by absorbance.

chymotrypsin = molecular target: T1, chymotrypsin (Bos taurus, UniProt P00766); assay: In vitro hydrolysis by chymotrypsin; assay type: in vitro ADME
T1 construct: purchased Worthington Biochemical Co
Method: All enzymatic assays were performed with 50 μM compound in 0.1M phosphate buffer, pH 7.4, at 37° C. with stirring, unless otherwise noted. Butyrylcholinesterase stock solutions from human serum (Sigma, St. Louis, Mo.) were prepared at 100 U/mL in 0.1 M phosphate buffer, pH 7.4, and stored at −20° C. until use. Hydrolysis was monitored on an 8452A diode array spectrophotometer (Hewlett-Packard). Product peak wavelength absorption was immediately monitored upon addition of compound. Absorbances for complete hydrolysis were determined when there were no further detectable changes. […] All hydrolysis assays were performed in triplicate, and final rate constants are expressed as the mean±SD of the three individually determined rate constants. […] Activity of chymotrypsin (bovine, Worthington Biochemical Co., 190 μg/mL) was verified with 90 μM 4-nitrophenyl acetate in 0.1 M HEPES solution, pH 6.5, at 37° C. with stirring. Hydrolysis product was monitored at 404 nm for 10 min. Activity of proteinase K (from Engyodontium album, Sigma, 165 μg/mL) was verified with 16.5 mg/mL bovine serum albumin in 0.1 M phosphate buffer, pH 7.4, at 37° C. Samples were taken at time point increments up to 2 hours when the reaction reached completion. Samples were analyzed with 12% SDS-PAGE, stained with 0.1% Coomassie Blue.

proteinase K = molecular target: T2, proteinase K (Parengyodontium album, UniProt P06873); assay: In vitro hydrolysis by proteinase K; assay type: in vitro ADME, Engyodontium album
T2 construct: purchased Sigma
T2 sequence (P06873 106-384): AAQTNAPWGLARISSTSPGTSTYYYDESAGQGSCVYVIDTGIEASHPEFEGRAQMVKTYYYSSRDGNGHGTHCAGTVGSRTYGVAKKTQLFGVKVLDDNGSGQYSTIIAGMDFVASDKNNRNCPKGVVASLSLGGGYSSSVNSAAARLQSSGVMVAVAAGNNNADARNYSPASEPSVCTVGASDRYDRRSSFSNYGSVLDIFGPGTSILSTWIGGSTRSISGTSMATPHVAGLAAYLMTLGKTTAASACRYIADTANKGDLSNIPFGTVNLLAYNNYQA
Method: Hydrolysis products of 4-nitrophenyl acetate and BSA were detected as positive controls.
All enzymatic assays were performed with 50 μM compound in 0.1M phosphate buffer, pH 7.4, at 37° C. with stirring, unless otherwise noted. Butyrylcholinesterase stock solutions from human serum (Sigma, St. Louis, Mo.) were prepared at 100 U/mL in 0.1 M phosphate buffer, pH 7.4, and stored at −20° C. until use. Hydrolysis was monitored on an 8452A diode array spectrophotometer (Hewlett-Packard). Product peak wavelength absorption was immediately monitored upon addition of compound. Absorbances for complete hydrolysis were determined when there were no further detectable changes. […] All hydrolysis assays were performed in triplicate, and final rate constants are expressed as the mean±SD of the three individually determined rate constants. In some experiments with compound 1, samples were taken at the beginning and end of the assay to verify the hydrolysis product and the completion of the reaction by HPLC. These samples were compared to compounds 1 and 3 on a C18 column eluted with 0.1% TFA in water/acetonitrile. Activity of chymotrypsin (bovine, Worthington Biochemical Co., 190 μg/mL) was verified with 90 μM 4-nitrophenyl acetate in 0.1 M HEPES solution, pH 6.5, at 37° C. with stirring. Hydrolysis product was monitored at 404 nm for 10 min. Activity of proteinase K (from Engyodontium album, Sigma, 165 μg/mL) was verified with 16.5 mg/mL bovine serum albumin in 0.1 M phosphate buffer, pH 7.4, at 37° C. Samples were taken at time point increments up to 2 hours when the reaction reached completion. Samples were analyzed with 12% SDS-PAGE, stained with 0.1% Coomassie Blue.

[2] = +50 mV, concentration series of FIG. 4 / FIG. 5, read-out: KD values determined from the fit of the equation
[3] = Table 1, +50 mV, mean±SD, not corrected for ion accumulation, read-out: KD(+50)
[4] = Table 1, −50 mV, mean±SD, not corrected for ion accumulation, read-out: KD(−50)
[5] = −50 mV, concentration series of FIG. 4 / FIG. 5, read-out: KD values determined from the fit of the equation

Sequence of heteromeric rod CNG channels consisting of CNGA1 and CNGB1 subunits (Q00194 whole entry): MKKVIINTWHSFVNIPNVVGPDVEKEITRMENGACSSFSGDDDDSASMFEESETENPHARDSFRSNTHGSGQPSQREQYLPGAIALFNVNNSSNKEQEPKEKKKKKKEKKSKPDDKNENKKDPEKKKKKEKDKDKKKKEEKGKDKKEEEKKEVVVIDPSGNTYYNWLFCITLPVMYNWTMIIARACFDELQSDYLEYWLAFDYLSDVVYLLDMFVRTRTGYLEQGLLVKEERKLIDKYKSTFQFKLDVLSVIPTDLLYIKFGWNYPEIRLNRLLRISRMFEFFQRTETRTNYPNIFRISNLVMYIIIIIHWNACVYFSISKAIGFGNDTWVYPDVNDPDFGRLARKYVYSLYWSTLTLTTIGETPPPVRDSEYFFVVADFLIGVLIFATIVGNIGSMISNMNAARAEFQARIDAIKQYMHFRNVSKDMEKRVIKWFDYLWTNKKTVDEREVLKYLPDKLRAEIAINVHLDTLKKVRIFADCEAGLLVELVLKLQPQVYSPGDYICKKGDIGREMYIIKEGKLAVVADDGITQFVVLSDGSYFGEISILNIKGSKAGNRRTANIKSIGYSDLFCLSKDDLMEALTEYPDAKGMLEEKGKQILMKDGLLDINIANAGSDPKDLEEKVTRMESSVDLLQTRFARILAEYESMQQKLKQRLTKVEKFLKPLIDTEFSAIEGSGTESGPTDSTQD
Sequence of heteromeric rod CNG channels consisting of CNGA1 and CNGB1 subunits (Q28181 whole entry): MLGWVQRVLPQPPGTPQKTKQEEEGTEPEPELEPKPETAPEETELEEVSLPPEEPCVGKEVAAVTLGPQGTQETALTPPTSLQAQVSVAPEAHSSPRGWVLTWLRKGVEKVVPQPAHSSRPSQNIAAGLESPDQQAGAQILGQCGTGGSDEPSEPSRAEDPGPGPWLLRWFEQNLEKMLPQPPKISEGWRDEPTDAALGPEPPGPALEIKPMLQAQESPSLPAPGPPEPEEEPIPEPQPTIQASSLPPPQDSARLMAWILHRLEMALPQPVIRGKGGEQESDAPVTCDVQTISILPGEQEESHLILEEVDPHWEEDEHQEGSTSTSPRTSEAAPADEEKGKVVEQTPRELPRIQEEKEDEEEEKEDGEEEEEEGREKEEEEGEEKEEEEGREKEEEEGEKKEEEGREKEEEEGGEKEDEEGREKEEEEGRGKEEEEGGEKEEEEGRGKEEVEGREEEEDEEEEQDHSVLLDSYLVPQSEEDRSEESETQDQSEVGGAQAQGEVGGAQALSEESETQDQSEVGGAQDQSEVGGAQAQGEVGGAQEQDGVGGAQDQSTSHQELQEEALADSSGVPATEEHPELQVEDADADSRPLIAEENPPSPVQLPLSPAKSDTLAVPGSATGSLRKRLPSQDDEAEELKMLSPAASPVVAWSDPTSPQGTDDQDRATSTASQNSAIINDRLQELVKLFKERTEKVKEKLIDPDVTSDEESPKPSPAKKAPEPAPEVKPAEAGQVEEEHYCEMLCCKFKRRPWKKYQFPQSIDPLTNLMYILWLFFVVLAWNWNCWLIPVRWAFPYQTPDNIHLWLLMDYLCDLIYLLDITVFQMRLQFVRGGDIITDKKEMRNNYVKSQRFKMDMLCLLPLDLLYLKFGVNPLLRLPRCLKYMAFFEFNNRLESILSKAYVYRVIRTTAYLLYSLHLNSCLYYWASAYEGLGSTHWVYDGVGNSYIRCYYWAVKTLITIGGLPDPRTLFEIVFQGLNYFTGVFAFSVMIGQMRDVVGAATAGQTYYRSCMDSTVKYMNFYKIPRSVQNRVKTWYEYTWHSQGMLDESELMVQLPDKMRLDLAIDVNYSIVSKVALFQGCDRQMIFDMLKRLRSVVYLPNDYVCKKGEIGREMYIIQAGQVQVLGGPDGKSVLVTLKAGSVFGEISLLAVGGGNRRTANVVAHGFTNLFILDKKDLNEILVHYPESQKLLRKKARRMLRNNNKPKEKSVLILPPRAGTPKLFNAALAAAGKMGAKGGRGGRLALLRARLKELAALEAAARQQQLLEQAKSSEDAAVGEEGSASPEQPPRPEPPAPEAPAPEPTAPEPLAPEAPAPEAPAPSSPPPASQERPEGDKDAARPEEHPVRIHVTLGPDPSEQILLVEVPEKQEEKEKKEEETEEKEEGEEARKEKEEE

Compound | voltage dependence of block [1] | Kd [1, 2] [nM] | Kd [1, 3] [nM] | Kd [1, 4] [nM] | Kd ([1]; octyl series table, +50 mV, read-out: KD(+50)) [nM] | Kd ([1]; octyl series table, −50 mV, read-out: KD(−50)) [nM] | Kd [1, 5] [nM] | hydrolysis products with chymotrypsin (chymotrypsin) | hydrolysis products with proteinase K (proteinase K)
CCCCCCCCNc1ccc(C(=O)OCCN(C)C)cc1 [Compound 5, 2-(Dimethylamino)ethyl 4-(Octylamino)benzoate, reference compound] | appreciably less voltage dependent than compound 1, 6, and 8 | 1500 | 1000 ± 600 | 2400 ± 1400 | 800 ± 500 | 1720 ± 1380 | 1800 |  | 
CCCCNc1ccc(C(=S)NCCN(C)C)cc1 [Compound 8, 4-(Butylamino)-N-(2-(dimethylamino)ethyl)benzothioamide] |  | 500 | 600 ± 300 | 3900 ± 1800 |  |  | 3700 | not able to generate any detectable hydrolysis products | not able to generate any detectable hydrolysis products
CCCCCCCCNc1ccc(C(=S)NCCN(C)C)cc1 [Compound 9, 4-(Octylamino)-N-(2-(dimethylamino)ethyl)benzothioamide] | appreciably less voltage dependent than compound 1, 6, and 8 | 1300 | 700 ± 500 |  |  |  | 1800 | not able to generate any detectable hydrolysis products | not able to generate any detectable hydrolysis products
